Experimental data reported in article PMC4747340, “A new class of small molecule estrogen receptor-alpha antagonists that overcome anti-estrogen resistance” (Oncotarget, 2015).

Key:
[1] = MTT assay of cell viability; format: cell-based; settings: human, MCF-7 cells, 24-hr exposure, relative to untreated control
Procedure: Figure 3 Cytotoxicity and specificity of compounds A., B. Subconfluent proliferating cells were incubated with the indicated compound at the indicated concentration for 24-hr and then harvested for MTT dye reduction assays. Cell viability values (relative to untreated control cells) are means ± SEMs of 10 replicate wells. C., D. Subconfuent proliferating T47D cells were transfected overnight with the MMTV-Luc reporter (0.25 μg per well in 24-well dishes), washed, and allowed to recover for several hr in fresh medium. The cells were then treated with a synthetic progestin (R5020, 10 nM) plus the indicated compound at the indicated concentration for 24 hr and then harvested for luciferase assays. Luciferase activity is expressed relative to the MMTV-Luc control (no agents added) (panel A) or as a percentage of the +R5020 positive control (panel B). Values are means ± SEMs of four replicate wells. The data shown in each panel are representative of three independent experiments.
Assays were performed as described before. After the indicated treatment, cells in 96-well dishes were solubilized and assayed for MTT dye reduction. Cell viability was expressed as the amount of dye reduction relative to untreated control cells. and calculated as means ± SEMs for 10 replicate wells.

ER Glu353Ala = target: T1, ER Glu353Ala (Homo sapiens, UniProt P03372, E353A); assay: ER mutation analysis, ERE-TK-Luc reporter in transfected MDA-MB-231 cells; format: cell-based; settings: MDA-MB-231 transfected with mutant ER, E2 10 nM, 24 hr
T1 construct: expressed in transfected cells; host or cells: MDA-MB-231
Source text: (§1) B., C. Panels B and C show a comparison of the ER interaction of one of our original series of compounds (A7) (B) and one new compounds (48693-K/1) (C). ER is represented by gray ribbon and its residues interacting with the compounds are drawn with wireframe and labeled. […] The hydrogen bond interaction with ARG 394 is shown in green line. […] The cells were harvested for luciferase assays. Luciferase values are expressed as a percent of the +E2 vehicle control and are means ± SEMs of four wells. The data shown in panels D to G are representative of three independent experiments.
(§2) Subconfluent cells in 24-well dishes were transfected overnight with 0.25 μg of each indicated vector plus the ERE-TK-Luc reporter in serum-free DMEM containing Lipofectamine2000 (Life Technologies, Washington, DC). Total transfected DNA was kept constant by addition of control vector. The cells were washed, incubated in phenol red-free DMEM containing 5% charcoal-stripped serum (obtained from the Tissue Culture Shared Resource) (0.2 ml/well) ± E2 (10 nM) ± the indicated compound for 24-hr, and harvested for luciferase assays. For each assay condition was tested in quadrupicate. To monitor the transfection efficiency, cultures were co-transfected with plasmid pRSV-β-gal (Promega, Madison, WI) to visualize transfected cells by X-gal staining.

ER Ile386Ala = target: T2, ER Ile386Ala (Homo sapiens, UniProt P03372, I386A); assay: as above; format: cell-based; settings: MDA-MB-231 transfected with mutant ER, E2 10 nM, 24 hr
T2 construct: expressed in transfected cells; host or cells: MDA-MB-231
Source text: as §1, §2

ER Pro325Ala = target: T3, ER Pro325Ala (Homo sapiens, UniProt P03372, P325A); assay: as above; format: cell-based; settings: MDA-MB-231 transfected with mutant ER, E2 10 nM, 24 hr
T3 construct: expressed in transfected cells; host or cells: MDA-MB-231
Source text: as §1, §2

Wild-type ER = target: T4, Wild-type ER (Homo sapiens, UniProt P03372); assay: as above; format: cell-based; settings: MDA-MB-231 transfected with wtER, E2 10 nM, 24 hr
T4 construct: expressed in transfected cells; host or cells: MDA-MB-231
Source text: as §1, §2

ER/ERE complex = target: T5, ER/ERE complex (Homo sapiens, UniProt P03372); assay: EMSA and supershift assays of ER binding to consensus ERE, MCF-7 nuclear extracts; format: biochemical; settings: for ER/ERE complex in EMSA, compound added directly to nuclear extracts: 1-5 μM added to MCF-7 nuclear extracts, compared with pre-incubation of cells; for interaction of ER with a model ERE oligonucleotide (EMSA, supershift): MCF-7 cells
T5 construct: MCF-7 cells in 24-well dishes were transfected overnight with the ERE-TK-Luc reporter plasmid; endogenous in cells; host or cells: MCF-7
T5 sequence (P03372 1-595): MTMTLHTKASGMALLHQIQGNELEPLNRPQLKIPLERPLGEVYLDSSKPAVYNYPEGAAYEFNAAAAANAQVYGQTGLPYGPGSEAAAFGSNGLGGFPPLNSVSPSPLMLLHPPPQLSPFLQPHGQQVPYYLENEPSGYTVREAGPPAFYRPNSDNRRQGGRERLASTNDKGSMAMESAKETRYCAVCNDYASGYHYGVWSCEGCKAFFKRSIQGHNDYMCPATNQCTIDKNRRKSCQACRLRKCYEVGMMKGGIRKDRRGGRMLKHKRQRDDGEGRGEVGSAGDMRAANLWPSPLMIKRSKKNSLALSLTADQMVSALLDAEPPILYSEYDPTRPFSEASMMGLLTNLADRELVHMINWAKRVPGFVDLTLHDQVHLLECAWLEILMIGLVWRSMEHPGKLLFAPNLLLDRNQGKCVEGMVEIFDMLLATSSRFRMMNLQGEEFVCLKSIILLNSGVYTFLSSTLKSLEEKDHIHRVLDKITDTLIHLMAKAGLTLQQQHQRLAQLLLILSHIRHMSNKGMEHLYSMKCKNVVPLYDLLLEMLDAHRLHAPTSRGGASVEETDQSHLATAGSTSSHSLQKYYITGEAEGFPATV
Procedure: After the 24-hr incubation, the cells were harvested, nuclear extracts were prepared, and the extracts were reacted with labeled “hot” ERE and an excess of unlabeled “cold” ERE, as indicated, prior to electrophoresis. In panel B, the experiment was performed similarly except that an anti-ER antibody was added to generate a “supershift”. C., D. Experiments were performed similarly to those above, except that different concentrations of compound (as indicated) were added directly to the reaction mixture containing nuclear extract and were not pre-incubated with whole cells. […] E., F. These experiments were performed similarly to those in C and D, except that anti-ER antibody was added to the reaction mixture to reveal “supershifted” bands. […] The data shown in each panel are representative of three independent experiments.
Double-stranded oligonucleotides containing a consensus ERE were obtained from Santa Cruz Biotechnology (sc-2858). Sequences of the oligonucleotides were: sense 5′-[…]-3′ and antisense: 3′-[…]-5′. Oligonucleotides were 3′-end-labeled using a Biotin Kit (Thermo Scientific, Rockford, IL). DNA binding reactions were carried out using nuclear extracts of MCF-7 cells that were treated ± E2 (10 nM) and ± the indicated compound for 24-hr. Treated cells were harvested and nuclear extracts were prepared using the NE-PER Nuclear and Cytoplasmic Extraction Reagents (Thermo Scientific). Aliquots of nuclear extract protein (2 μg) were incubated with gel-shift binding buffer (LightShift Chemiluminescent EMSA Kit, Thermo Scientific) for 30 min at 25°C. After incubation, 40 fmol of biotin-labeled ERE-containing oligonucleotides were added, and the mixture was re-incubated for 30 min at 25°C. Reaction products were loaded electrophoresed on a 6% DNA retardation gel (Invitrogen) and transferred onto a nylon membrane. Biotin-labeled DNA was detected using the Chemiluminescent Nucleic Acid Detection Module (Thermo Scientific). To test the specificity of binding, a 40-fold excess of unlabeled (“cold”) oligonucleotide was added to one of the reactions along with the biotin-labeled (“hot”) oligonucleotide. Note: In some experiments, the compound was added to the reaction mixture after the nuclear extract was prepared. Supershift assays were performed as above, except that before addition of the hot ERE oligonucleotide, nuclear extracts were incubated with 2-μg of anti-ER IgG (rabbit polyclonal, HC-20, Santa Cruz) for 30 min at 25°C.

T1 sequence (P03372 whole entry E353A): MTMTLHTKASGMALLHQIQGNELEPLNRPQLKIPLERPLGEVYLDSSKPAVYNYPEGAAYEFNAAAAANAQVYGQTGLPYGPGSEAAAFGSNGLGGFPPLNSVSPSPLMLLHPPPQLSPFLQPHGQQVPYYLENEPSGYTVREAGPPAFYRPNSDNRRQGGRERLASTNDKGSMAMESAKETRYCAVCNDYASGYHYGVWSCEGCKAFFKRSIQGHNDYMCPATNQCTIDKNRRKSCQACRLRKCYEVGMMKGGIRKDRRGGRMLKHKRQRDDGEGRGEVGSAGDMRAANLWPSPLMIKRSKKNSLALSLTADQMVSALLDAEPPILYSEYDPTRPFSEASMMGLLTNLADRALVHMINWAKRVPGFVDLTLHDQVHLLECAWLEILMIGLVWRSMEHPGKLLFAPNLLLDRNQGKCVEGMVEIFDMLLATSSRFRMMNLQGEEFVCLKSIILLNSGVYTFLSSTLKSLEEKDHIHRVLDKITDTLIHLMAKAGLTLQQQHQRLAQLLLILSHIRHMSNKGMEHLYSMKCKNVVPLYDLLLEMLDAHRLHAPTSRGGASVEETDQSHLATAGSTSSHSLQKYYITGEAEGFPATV
T3 sequence (P03372 whole entry P325A): as the sequence (P03372 whole entry E353A) above, with P325A, A353E counted along it
T2 sequence (P03372 whole entry I386A): as the sequence (P03372 whole entry E353A) above, with A353E, I386A counted along it

Structure (SMILES)	viability at 24 h, 1 µM [1]	viability at 24 h, 20 µM [1]	IC50 (ER Glu353Ala)	IC50 (ER Ile386Ala)	IC50 (ER Pro325Ala)	IC50 (Wild-type ER)	ER/ERE complex in EMSA, compound added directly to nuclear extracts (ER/ERE complex)	interaction of ER with a model ERE oligonucleotide (EMSA, supershift) (ER/ERE complex)	ER/ERE complex in EMSA, cells pre-incubated with compound (ER/ERE complex; MCF-7 pre-incubated with E2 10 nM and compound 1 or 20 μM for 24 hr)
O=C(CC(c1ccccc1)N1CCCCC1)c1ccccc1 (stereo not shown) [35446-L/1, 1,3-diphenyl-3-(piperidin-1-yl)propan-1-one]	100%	> 90%	> 10 µM	4 µM	0.9 µM	0.8 µM	greater effect	disrupt the interaction of ER with a model ERE oligonucleotide	–
O=C(c1cc(Br)ccc1O)c1cc(Br)ccc1O [4631-P/1]	100%	> 90%	–	–	–	–	greater effect	disrupt the interaction of ER with a model ERE oligonucleotide	dose-dependent reduction of the ER/ERE complex
